Calls of active or inactive are those of the source.
Tests used:
[1] = Drug uptake in mouse Lymph node at 1000 long pass by fluorescence imaging based analysis; type: ADME, tissue-based; settings: in vivo
[2] = Drug uptake in mouse Lymph node at 655/24nm band pass by fluorescence imaging based analysis; type: ADME, tissue-based; settings: in vivo
[3] = Toxicity in BALB/c mouse assessed as effect on heart measured after 24 hrs by real-time NIR-II fluorescence imaging analysis; type: tissue-based; settings: in vivo
[4] = test system: 4T1; assay: Induction of intracellular ROS generation in mouse 4T1 cells preincubated with compound followed by laser irradiation at 808nm 1.0 W/cm2 by DCFDA staining based analysis; type: functional, cell-based
[5] = Toxicity in BALB/c mouse assessed as effect on spleen at 6.84 ug, IG measured after 14 days by H and E staining based analysis; type: tissue-based; settings: in vivo, po, 336 h, dose 6.84 µg, time 14 day
[6] = test system: 4T1; assay: Antitumor activity against mouse 4T1 cells xenografted in BALB/c mouse model assessed as induction of apoptosis at 6.84 ug, IG pretreated with compound for 2 hrs followed by laser irradiation at 808nm 1.0 W/cm2 for 5 mins and measured every two days for 14 days by TUNEL assay; type: functional; settings: dose 6.84 µg, time 14.0 day
[7] = Toxicity in BALB/c mouse assessed as effect on kidney at 6.84 ug, IG pretreated with compound for 2 hrs followed by laser irradiation at 808nm 1.0 W/cm2 for 5 mins and measured after 14 days by H and E staining based analysis; type: tissue-based; settings: in vivo, po, 336 h, dose 6.84 µg, time 14 day
[8] = Toxicity in BALB/c mouse assessed as effect on tumor at 6.84 ug, IG measured after 14 days by H and E staining based analysis; settings: in vivo, po, 336 h, dose 6.84 µg, time 14 day
[9] = Drug metabolism in Balb/c mouse liver administered as iv dose by NIR-II fluorescence imaging analysis; type: ADME, organism-based; settings: in vivo
[10] = test system: 4T1; assay: Cytotoxicity in mouse 4T1 cells at upto 100 uM incubated for 24 hrs by CCK-8 method; type: functional, cell-based
[11] = test system: 4T1; assay: Cytotoxicity in mouse 4T1 cells assessed as increase in red fluorescence at 100 uM incubated for 12 hrs by Calcein-AM and PI staining based fluorescence microscopy analysis; type: functional, cell-based
[12] = Toxicity in BALB/c mouse assessed as ALT level in serum measured after 7 to 14 days by biochemical analysis; settings: time 7-14 day
[13] = Toxicity in BALB/c mouse assessed as effect on lung measured after 24 hrs by real-time NIR-II fluorescence imaging analysis; type: tissue-based; settings: in vivo
[14] = Toxicity in BALB/c mouse assessed as UREA level in serum measured after 7 to 14 days by biochemical analysis; settings: time 7-14 day
[15] = Toxicity in BALB/c mouse assessed as effect on liver at 6.84 ug, IG measured after 14 days by H and E staining based analysis; type: tissue-based; settings: in vivo, po, 336 h, dose 6.84 µg, time 14 day
[16] = test system: NIH3T3; assay: Cytotoxicity in mouse 3T3 cells at upto 100 uM incubated for 24 hrs by CCK-8 method; type: toxicity, cell-based; settings: nih3t3, 24 h
[17] = Toxicity in BALB/c mouse assessed as effect on lung at 6.84 ug, IG pretreated with compound for 2 hrs followed by laser irradiation at 808nm 1.0 W/cm2 for 5 mins and measured after 14 days by H and E staining based analysis; type: tissue-based; settings: in vivo, po, 336 h, dose 6.84 µg, time 14 day
[18] = Toxicity in BALB/c mouse assessed as effect on spleen measured after 24 hrs by real-time NIR-II fluorescence imaging analysis; type: tissue-based; settings: in vivo
[19] = Toxicity in BALB/c mouse assessed as effect on lung at 6.84 ug, IG measured after 14 days by H and E staining based analysis; type: tissue-based; settings: in vivo, po, 336 h, dose 6.84 µg, time 14 day
[20] = test system: 4T1; assay: Antitumor activity against mouse 4T1 cells xenografted in BALB/c mouse model assessed as suppression of tumor at 6.84 ug, IG pretreated with compound for 2 hrs followed by laser irradiation at 808nm 1.0 W/cm2 for 5 mins and measured every two days for 14 days by vernier caliper analysis; type: functional; settings: dose 6.84 µg, time 14.0 day
[21] = Toxicity in BALB/c mouse assessed as effect on liver at 6.84 ug, IG pretreated with compound for 2 hrs followed by laser irradiation at 808nm 1.0 W/cm2 for 5 mins and measured after 14 days by H and E staining based analysis; type: tissue-based; settings: in vivo, po, 336 h, dose 6.84 µg, time 14 day
[22] = Toxicity in BALB/c mouse assessed as effect on spleen at 6.84 ug, IG pretreated with compound for 2 hrs followed by laser irradiation at 808nm 1.0 W/cm2 for 5 mins and measured after 14 days by H and E staining based analysis; type: tissue-based; settings: in vivo, po, 336 h, dose 6.84 µg, time 14 day
[23] = Toxicity in BALB/c mouse assessed as effect on kidney at 6.84 ug, IG measured after 14 days by H and E staining based analysis; type: tissue-based; settings: in vivo, po, 336 h, dose 6.84 µg, time 14 day
[24] = Toxicity in BALB/c mouse assessed as creatinine level in serum measured after 7 to 14 days by biochemical analysis; settings: time 7-14 day
[25] = Toxicity in BALB/c mouse assessed as effect on liver measured after 24 hrs by real-time NIR-II fluorescence imaging analysis; type: tissue-based; settings: in vivo
[26] = Toxicity in BALB/c mouse assessed as AST level in serum measured after 7 to 14 days by biochemical analysis; settings: time 7-14 day
[27] = Toxicity in BALB/c mouse assessed as effect on kidney measured after 24 hrs by real-time NIR-II fluorescence imaging analysis; type: tissue-based; settings: in vivo
[28] = test system: 4T1; assay: Antitumor activity against mouse 4T1 cells xenografted in BALB/c mouse model assessed as induction of apoptosis at 6.84 ug, IG measured every two days for 14 days by TUNEL assay; type: functional; settings: dose 6.84 µg, time 14.0 day
[29] = Toxicity in BALB/c mouse assessed as effect on heart at 6.84 ug, IG measured after 14 days by H and E staining based analysis; type: tissue-based; settings: in vivo, po, 336 h, dose 6.84 µg, time 14 day
[30] = test system: 4T1; assay: Antitumor activity against mouse 4T1 cells xenografted in BALB/c mouse model assessed as increase in tumor temperature at 6.84 ug, IG pretreated with compound for 2 hrs followed by laser irradiation at 808nm 1.0 W/cm2 for 5 mins (reference value: 34 degreeC); type: functional; settings: dose 6.84 µg, time 125 min, 2.083 h
[31] = Drug uptake in mouse 4T1 cells assessed as increase in fluorescence measured upto 12 hrs by NIR-II fluorescence microscopic analysis; type: ADME, cell-based; settings: 4t1, 12 h
[32] = Toxicity in BALB/c mouse assessed as ALB level in serum measured after 7 to 14 days by biochemical analysis; settings: time 7-14 day
[33] = test system: 4T1; assay: Cytotoxicity in mouse 4T1 cells assessed as increase in red fluorescence at 100 uM incubated for 12 hrs followed by 808nm laser irradiation for 5 mins and measured after 12 hrs by Calcein-AM and PI staining based fluorescence microscopy analysis; type: functional, cell-based; settings: time 1445.0 min
[34] = Toxicity in BALB/c mouse assessed as effect on heart at 6.84 ug, IG pretreated with compound for 2 hrs followed by laser irradiation at 808nm 1.0 W/cm2 for 5 mins and measured after 14 days by H and E staining based analysis; type: tissue-based; settings: in vivo, po, 336 h, dose 6.84 µg, time 14 day
[35] = Toxicity in BALB/c mouse assessed as effect on body weight at 6.84 ug, IG pretreated with compound for 2 hrs followed by laser irradiation at 808nm 1.0 W/cm2 for 5 mins and measured every two days for 14 days; settings: in vivo, po, 336 h, dose 6.84 µg, time 14 day
[36] = Drug excretion in Balb/c mouse liver administered as iv dose measured after 12 hrs by NIR-II fluorescence imaging analysis; type: ADME, organism-based; settings: in vivo
[37] = test system: 4T1; assay: Cytotoxicity in mouse 4T1 cells assessed as decrease in cell survival at 75 uM incubated for 24 hrs under laser irradiation by CCK-8 method; type: functional, cell-based
[38] = Toxicity in BALB/c mouse assessed as effect on tumor at 6.84 ug, IG pretreated with compound for 2 hrs followed by laser irradiation at 808nm 1.0 W/cm2 for 5 mins and measured after 14 days by H and E staining based analysis; settings: in vivo, po, 336 h, dose 6.84 µg, time 14 day
[39] = Toxicity in BALB/c mouse assessed as effect on body weight at 6.84 ug, IG measured every two days for 14 days; settings: in vivo, po, 336 h, dose 6.84 µg, time 14 day
[40] = Drug uptake in mouse Lymph node at 769/48nm long pass by fluorescence imaging based analysis; type: ADME, tissue-based; settings: in vivo

CCn1/c(=C/C2=C([O-])C(=C/C3=[N+](CC)c4cccc5cccc3c45)/C2=O)c2cccc3cccc1c32
Active: Drug uptake [1]

CCN1/C(=C/C2=C([O-])C(=C/C3=[N+](CC)c4ccccc4C3(C)C)/C2=O)C(C)(C)c2ccccc21
Active: Drug uptake [2]

O=C1C(/C=c2\c3cccc4cccc(c43)n2CCCCS(=O)(=O)O)=C([O-])C/1=C/C1=[N+](CCCCS(=O)(=O)O)c2cccc3cccc1c23
Metabolite_Detected: Drug metabolism [9]
Non-Toxic: Activity [3] | Activity [5] | Activity [7] | Activity [8] | Activity [12] | Activity [13] | Activity [14] | Activity [15] | Activity [16] | Activity [17] | Activity [18] | Activity [19] | Activity [21] | Activity [22] | Activity [23] | Activity [24] | Activity [25] | Activity [26] | Activity [27] | Activity [29] | Activity [32] | Activity [34] | Activity [35] | Activity [38] | Activity [39]
inactive: Activity [4] | Activity [10] | Activity [11]
active: Activity [6] | Activity [20] | Activity [28] | Activity [33] | Activity [37]
54 °C: T [30]
Active: Drug uptake [31] | Drug excretion [36]

CCN1/C(=C/C2=C([O-])C(=C/C3=[N+](CC)c4ccc5ccccc5c4C3(C)C)/C2=O)C(C)(C)c2c1ccc1ccccc21
Active: Drug uptake [40]
